Experiments:
[1] = target: V-type proton ATPase subunit B (Manduca sexta, UniProt P31401); assay: Inhibition of Manduca sexta V-ATPase V1/Vo holoenzyme activity assessed as inorganic phosphate production pretreated for 5 mins
L929 = assay: Antiproliferative activity against mouse L929 cells assessed as growth inhibition after 5 days by MTT assay; format: functional; details: L929, 120 h
SK-OV-3 = assay: Antiproliferative activity against human SKOV3 cells after 5 days by MTT assay; format: functional; details: SK-OV-3, 120 h
A-431 = assay: Antiproliferative activity against human A431 cells after 5 days by MTT assay; format: functional; details: A-431, 120 h
[2] = Antiproliferative activity against human KB-3-1 cells after 5 days by MTT assay; format: functional; details: KB 3-1, 120 h
U-937 = assay: Antiproliferative activity against human U937 cells after 5 days by MTT assay; format: functional; details: U-937, 120 h
MCF7 = assay: Antiproliferative activity against human MCF7 cells after 5 days by MTT assay; format: functional; details: MCF7, 120 h
PC-3 = assay: Antiproliferative activity against human PC3 cells after 5 days by MTT assay; format: functional; details: PC-3, 120 h

V-type proton ATPase subunit B, sequence (P31401 whole entry): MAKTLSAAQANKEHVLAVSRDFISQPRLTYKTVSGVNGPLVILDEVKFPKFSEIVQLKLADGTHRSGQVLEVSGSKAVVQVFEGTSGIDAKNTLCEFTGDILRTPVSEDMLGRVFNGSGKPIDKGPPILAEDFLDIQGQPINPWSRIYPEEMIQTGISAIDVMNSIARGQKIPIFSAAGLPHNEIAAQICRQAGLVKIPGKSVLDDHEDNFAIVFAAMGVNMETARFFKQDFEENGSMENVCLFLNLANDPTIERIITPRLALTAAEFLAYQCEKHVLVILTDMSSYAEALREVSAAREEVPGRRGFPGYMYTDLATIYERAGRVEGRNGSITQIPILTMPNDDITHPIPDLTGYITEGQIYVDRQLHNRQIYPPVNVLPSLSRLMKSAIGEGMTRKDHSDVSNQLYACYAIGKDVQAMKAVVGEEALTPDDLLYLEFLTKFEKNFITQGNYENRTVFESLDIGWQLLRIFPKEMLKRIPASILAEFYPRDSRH

Structure (SMILES)	IC50 [1] [nmol/mg]	GI50 (L929) [nM]	GI50 (SK-OV-3) [nM]	GI50 (A-431) [nM]	GI50 [2] [nM]	GI50 (U-937) [nM]	GI50 (MCF7) [nM]	GI50 (PC-3) [nM]
CNC(=O)O[C@@H](CC(C)C)c1nc([C@H]2OC(=O)/C(C)=C/C/C(C)=C/[C@@H](O)[C@@H](C)\C=C(C)/C=C(C)\C=C\[C@@H](O)[C@H](C)[C@H](OC)/C(C)=C/C=C/[C@@H]2C)cs1 [ARCHAZOLID A]	0.6	0.81						
CNC(=O)O[C@@H](CC(C)C)c1nc([C@H]2OC(=O)/C=C/C/C(C)=C/[C@@H](O)[C@@H](C)\C=C(C)/C=C(C)\C=C\[C@@H](O)[C@H](C)[C@H](OC)/C(C)=C/C=C/[C@@H]2C)cs1 [ARCHAZOLID B]	0.6	1.1						
CNC(=O)O[C@@H](CC(C)C)c1nc([C@H]2OC(=O)/C(C)=C/C/C(C)=C/[C@@H](O[C@@H]3O[C@H](CO)[C@@H](O)[C@H](O)[C@H]3O)[C@@H](C)\C=C(C)/C=C(C)\C=C\[C@@H](O)[C@H](C)[C@H](OC)/C(C)=C/C=C/[C@@H]2C)cs1 [ARCHAZOLID C]	210	1600						
CNC(=O)O[C@@H](CC(C)C)c1nc([C@H]2OC(=O)/C(C)=C/C/C(C)=C/[C@@H](O[C@@H]3O[C@H](CO)[C@@H](O)[C@H](O)[C@H]3O)[C@@H](C)\C=C(CO)/C=C(C)\C=C\[C@@H](O)[C@H](C)[C@H](OC)/C(C)=C/C=C/[C@@H]2C)cs1 [ARCHAZOLID D]	1200	330						
CNC(=O)O[C@@H](CC(C)C)c1nc([C@H]2OC(=O)/C(C)=C/C/C(C)=C/[C@@H](O)[C@@H](C)\C=C(C)/C=C(C)\C=C\[C@@H](O[C@@H]3O[C@H](CO)[C@@H](O)[C@H](O)[C@H]3O)[C@H](C)[C@H](OC)/C(C)=C/C=C/[C@@H]2C)cs1 [ARCHAZOLID E]		510						
CNC(=O)O[C@@H](CC(C)C)c1nc([C@H]2OC(=O)C/C=C/C(C)=C/[C@@H](O)[C@@H](C)\C=C(C)/C=C(C)\C=C\[C@@H](O)[C@H](C)[C@H](OC)/C(C)=C/C=C/[C@@H]2C)cs1 [ARCHAZOLID F]	0.7	0.11	0.043	0.111	0.042	0.038	0.131	0.053

— ChEMBL document CHEMBL1782025, “Archazolid A-15-O-β-D-glucopyranoside and iso-archazolid B: potent V-ATPase inhibitory polyketides from the myxobacteria Cystobacter violaceus and Archangium gephyra” (J Nat Prod, 2011)
